Consider 18 molecules from patent publication US4224329A, “2-Substitute d-trans-5-aryl-2,3,4,4a,5,9b-hexahydro-1H-pyrido[4,3-b]indoles” (Pfizer Inc., priority 1979, dated 1980).

This experiment relates to Amphetamine Stereotypy. The experiment is described as follows: Antagonism of Amphetamine Stereotypy in Rats (ED50 for blocking characteristic amphetamine cage movement). It counts as in vivo. The note with it: for ED50: Rattus norvegicus. Here is the method: The effects of the compounds of the present invention on prominent amphetamine-induced symptoms were studied in rats by a rating scale modeled after the one reported by Quinton and Halliwell, and Weissman. Groups of five rats were placed in a covered plastic cage measuring approximately 26 cm.×42 cm.×16 cm. […] They were then treated 1, 5 and 24 hrs. later with d-amphetamine sulfate, 5 mg./kg. intraperitoneally (i.p.). […] On the basis of dose-response data after amphetamine it was possible to determine the effective dose of the compound necessary to antagonize or block the characteristic amphetamine behavior of cage movement for fifty percent of the rats tested (ED50). The time of rating chosen coincides with the peak action of amphetamine which is 60-80 min. after treatment with this agent.
Employing the above-described procedure, the following 4a,9b-trans compounds were tested for their ability to block the behavior effects of amphetamine, the results being reported as the ED50 in mg./kg. at the indicated times: [drawing 30]
A. The following results were obtained on the mixture of diastereomers for those compounds wherein R contains a secondary alcohol group and on the single diastereomer of the other 4a, 9b-trans hexahydro-pyrido-indoles.
B. The results of tests in which compounds of the invention reported in Part A, above are compared with the corresponding δ-substituted-5-aryl-1,2,3,4-tetrahydropyrido[4,3-b]indoles of U.S. Pat. No. 4,001,263 are summarized below. For each pair the results obtained on the prior art compound (a) are given first and the results for the compound of the invention (b) are given second. Where indicated the test compound was also administered orally (p.o.) and tests were carried out for 48 hours.
C. […] In each case the compounds are of the formula
The tests were carried out for 72 hours.

[1] abbreviates: ip, 1 h, i.p., Part B, read-out: ED50, 1 Hr.
Where [2] appears, read: ip, 5 h, i.p., Part B, read-out: ED50, 5 Hrs.
Setting [3] is: ip, 24 h, i.p., Part B, read-out: ED50, 24 Hrs.
Setting [4] is: sc, 1 h, s.c., Part A, read-out: ED50, 1 Hr.
Setting [5] is: sc, 5 h, s.c., Part A, read-out: ED50, 5 Hr.
Where [6] appears, read: sc, 24 h, s.c., Part A, read-out: ED50, 24 Hrs.
Setting [7] is: po, 1 h, p.o., Part B, read-out: ED50, 1 Hr.
[8] abbreviates: po, 5 h, p.o., Part B, read-out: ED50, 5 Hrs.
Setting [9] is: po, 24 h, p.o., Part B, read-out: ED50, 24 Hrs.

Structures can show the parent of a compound that is named as a salt. Where two headings read alike, the source gives them in different places.

Regarding `OC(CCCN1CC[C@H]2[C@H](C1)c1ccccc1N2c1ccccc1)c1ccccc1` (relative stereo), the ED50 lay in the range of 0.032 to 0.1 mg/kg under setting [1]; 0.032 to 0.1 mg/kg under setting [2]; 0.1 to 0.32 mg/kg under setting [3]; 0.032 to 0.1 mg/kg under setting [4]; 0.032 to 0.1 mg/kg under setting [5]; 0.1 to 0.32 mg/kg under setting [6].
For `OC(CCCN1CC[C@H]2[C@H](C1)c1ccccc1N2c1ccccc1)c1ccc(F)cc1` (relative stereo), the ED50 lay within 0.1 to 0.32 mg/kg under setting [4], 0.1 to 0.32 mg/kg under setting [5] and 0.1 to 0.32 mg/kg under setting [6].
Regarding `O=C(CCCN1CC[C@H]2[C@H](C1)c1ccccc1N2c1ccccc1)c1ccc(F)cc1` (relative stereo), the ED50 by setting is: under setting [4], approximately 0.32 mg/kg; under setting [5], 0.1 to 0.32 mg/kg; under setting [6], approximately 0.32 mg/kg.
Consider `OC(CCCN1CC[C@H]2[C@H](C1)c1cc(F)ccc1N2c1ccc(F)cc1)c1ccccc1` (relative stereo), for which the ED50 is 0.1 to 0.32 mg/kg under setting [4], 0.1 to 0.32 mg/kg under setting [5] and less than 0.32 mg/kg under setting [6].
With `O=C(CCCN1CC[C@H]2[C@H](C1)c1cc(F)ccc1N2c1ccc(F)cc1)c1ccc(F)cc1` (relative stereo), the ED50 under setting [1] was less than 1 mg/kg; the ED50 under setting [2] is less than 1 mg/kg; the ED50 under setting [3] was less than 1 mg/kg; the ED50 under setting [4] was less than 1 mg/kg; the ED50 under setting [5] was less than 1 mg/kg; the ED50 under setting [6] was less than 1 mg/kg.
As to `c1ccc(CCCN2CC[C@H]3[C@H](C2)c2ccccc2N3c2ccccc2)cc1` (relative stereo) [R = C6 H5 (CH2)3, reference compound], the ED50 was 3.2 to 10 mg/kg under setting [4], 3.2 to 10 mg/kg under setting [5] and more than 10 mg/kg under setting [6].
Regarding `c1ccc(CN2CC[C@H]3[C@H](C2)c2ccccc2N3c2ccccc2)cc1` (relative stereo) [R = C6 H5 CH2, dl-trans-2-benzyl-2,3,4,4a,5,9b-hexahydro-5-phenyl-1H-pyrido[4,3-b]indole Hydrochloride, reference compound], the ED50 under setting [4] is approximately 10 mg/kg, the ED50 under setting [5] is 3.2 to 32 mg/kg and the ED50 under setting [6] is more than 3.2 mg/kg.
On to `c1ccc(N2c3ccccc3[C@H]3CNCC[C@@H]32)cc1` (relative stereo) [R = H, dl-trans-5-Phenyl-2,3,4,4a,5,9b-hexahydro-1H-pyrido[4,3-b]indole, reference compound], for which the ED50 is, setting by setting: (sc, 1 h, read-out: ED50, 1 Hr.) 3.2 to 32 mg/kg; (sc, 5 h, read-out: ED50, 5 Hr.) more than 3.2 mg/kg; (sc, 24 h, read-out: ED50, 24 Hrs.) more than 32 mg/kg.
In the case of `OC(CCCN1CC[C@H]2[C@@H](C1)c1ccccc1N2c1ccccc1)c1ccc(F)cc1` (relative stereo) [corresponding 4a, 9bcis analog, reference compound], under setting [4], the median effective dose (ED50) came out at 56 mg/kg.
Take `OC(CCCN1CC[C@H]2[C@H](C1)c1cc(F)ccc1N2c1ccc(F)cc1)c1ccc(F)cc1` (relative stereo) [drawing 37, dl-trans-8-Fluoro-5-(p-fluorophenyl)-2-[4-hydroxy-4-(p-fluorophenyl)butyl]-2,3,4,4a,5,9b-hexahydro-1H-pyrido[4,3-b]indole hydrochloride]: the ED50 by setting is: under setting [1], 0.032 to 0.1 mg/kg; under setting [2], 0.032 to 0.1 mg/kg; under setting [3], 0.032 to 0.1 mg/kg; (ip, 48 h, i.p., Part B, read-out: ED50, 48 Hrs.) 0.1 to 0.32 mg/kg; under setting [7], 0.32 to 1 mg/kg; under setting [8], 0.1 to 0.32 mg/kg. Moreover, the ED50 was in the range of 0.1 to 0.32 mg/kg under setting [9], 0.032 to 0.1 mg/kg under setting [4], 0.032 to 0.1 mg/kg under setting [5] and 0.032 to 0.1 mg/kg under setting [6].
Turning to `OC(CCCN1CC[C@@H]2[C@@H](C1)c1cc(F)ccc1N2c1ccccc1F)c1ccc(F)cc1` (relative stereo) [trans-8-fluoro-5-(o-fluorophenyl)-2-[4-hydroxy-4-(p-fluorophenyl)butyl]-2,3,4,4a,5,9b-hexahydro-1H-pyrido[4,3-b]indole], the median effective dose (ED50) was 0.1 to 0.32 mg/kg under setting [1]; approximately 0.1 mg/kg under setting [2]; approximately 0.1 mg/kg under setting [3]; less than 1 mg/kg under setting [7]; less than 1 mg/kg under setting [8]; less than 1 mg/kg under setting [9]. In addition, the ED50 is less than 0.32 mg/kg under setting [4], less than 0.32 mg/kg under setting [5] and less than 0.32 mg/kg under setting [6].
Turning to `Cl.OC(CCCN1CC[C@@H]2[C@@H](C1)c1cc(F)ccc1N2c1ccc(F)cc1)c1ccc(F)cc1` (single isomer, unassigned) [α, trans 8-fluoro-5-(p-fluorophenyl)-2-[4-hydroxy-4(p-fluorophenyl)butyl]-2,3,4,4a,5,9b-hexahydro-1H-pyrido[4,3-b]indole hydrochloride], the “ED50, 5 Hrs.” value (5 hrs, s.c., Part C, isomers of Examples 13 and 14, hydrochloride, 300 min) was 32-100 micrograms/kilograms. The “ED50, 24 Hrs.” value (24 hrs, s.c., Part C, isomers of Examples 13 and 14, hydrochloride, 1440 min) was 32-100 micrograms/kilograms. Besides, the “ED50, 48 Hrs.” value (48 hrs, s.c., Part D, enantiomers by synthesis of Example 21, hydrochloride, 2880 min) was “ca. 1 mg./kg”. Further, the “ED50, 72 Hrs.” value (72 hrs, s.c., Part D, enantiomers by synthesis of Example 21, hydrochloride, 4320 min) was more than 10 mg/kg.
For the molecule `Cl.OC(CCCN1CCC2C(C1)c1cc(F)ccc1N2c1ccc(F)cc1)c1ccc(F)cc1` (single isomer, unassigned) [β, 8-fluoro-5-(p-fluorophenyl)-2-[4-hydroxy-4-(p-fluorophenyl)butyl]-2,3,4,4a,5,9b-hexahydro-1H-pyrido[4,3-b]indole hydrochloride], the ED50 by setting is: (sc, 1 h, s.c., Part C, isomers of Examples 13 and 14, read-out: ED50, 1 Hr.) more than 1 mg/kg; (sc, 1 h, s.c., Part D, enantiomers by synthesis of Example 21, read-out: ED50, 1 Hr.) more than 10 mg/kg; (sc, 5 h, s.c., Part C, isomers of Examples 13 and 14, read-out: ED50, 5 Hrs.) more than 1 mg/kg; (sc, 5 h, s.c., Part D, enantiomers by synthesis of Example 21, read-out: ED50, 5 Hrs.) 5.7 mg/kg; (sc, 24 h, s.c., Part C, isomers of Examples 13 and 14, read-out: ED50, 24 Hrs.) more than 1 mg/kg; (sc, 24 h, s.c., Part D, enantiomers by synthesis of Example 21, read-out: ED50, 24 Hrs.) more than 10 mg/kg. In addition, the ED50 reads like this: (sc, 48 h, s.c., Part D, enantiomers by synthesis of Example 21, read-out: ED50, 48 Hrs.) more than 10 mg/kg; (sc, 72 h, s.c., Part D, enantiomers by synthesis of Example 21, read-out: ED50, 72 Hrs.) more than 10 mg/kg.
On to `CN1CCN(CC/C=C2/c3ccccc3Sc3ccc(S(=O)(=O)N(C)C)cc32)CC1` [Navane, cis-9-[3-(4-Methyl-1-piperazinyl)propylidene]-2-(dimethylsulfonamido)thioanthene, reference compound], for which the ED50 is, setting by setting: (po, 1 h, po, Part A, read-out: ED50, 1 Hr.) 0.32 to 1 mg/kg; (po, 5 h, po, Part A, read-out: ED50, 5 Hr.) more than 10 mg/kg; (po, 24 h, po, Part A, read-out: ED50, 24 Hrs.) more than 32 mg/kg.
As to `OC(CCCN1CCc2c(c3ccccc3n2-c2ccccc2)C1)c1ccccc1` (stereo not shown) [drawing 40 (a), reference compound], the ED50 is 3.2 to 10 mg/kg under setting [1], 3.2 to 10 mg/kg under setting [2] and more than 10 mg/kg under setting [3].
In the case of `OC(CCCN1CCc2c(c3cc(F)ccc3n2-c2ccc(F)cc2)C1)c1ccc(F)cc1` (stereo not shown) [drawing 41 (a), 8-Fluoro-5-(p-fluorophenyl)-2-[4-(p-fluorophenyl)-4-hydroxybutyl]-1,2,3,4-tetrahydro-γ-carboline hydrochloride, reference compound], the ED50 is, setting by setting: under setting [1], 0.1 to 0.32 mg/kg; under setting [2], 0.1 to 3.2 mg/kg; under setting [3], 1 to 3.2 mg/kg; under setting [7], 1 to 3.2 mg/kg; under setting [8], 0.32 to 1 mg/kg; under setting [9], 1 to 3.2 mg/kg.
On to `O=C(CCCN1CCc2c(c3cc(F)ccc3n2-c2ccc(F)cc2)C1)c1ccc(F)cc1` [drawing 42 (a), reference compound], for which the ED50 by setting is: under setting [1], 3.2 to 10 mg/kg; under setting [2], more than 10 mg/kg.
Consider `OC(CCCN1CCc2c(c3cc(F)ccc3n2-c2ccccc2F)C1)c1ccc(F)cc1` (stereo not shown) [drawing 43 (a), reference compound], for which the ED50 is 0.32 to 1 mg/kg under setting [1], 1 to 3.2 mg/kg under setting [2] and more than 10 mg/kg under setting [3].

One may read the ED50 as the dose at which the effect has come halfway, by size or by number of responders.
